From US10654834B2 (Venenum Biodesign, LLC, priority 2016, dated 2020)

Key:
[1] = target: T1, human TGR5 receptor (Homo sapiens, UniProt Q8TDU6); test: Human TGR5 cAMP production assay (hTGR5-CHO cells, DiscoveRx cAMP XS+ kit); type: cell-based; conditions: luminescent cAMP assay, read-out: Human TGR5 Lum. cAMP Activity (EC50)
T1 construct: host or cells: CHO-K1 (hTGR5-CHO)
T1 sequence (Q8TDU6 1-330): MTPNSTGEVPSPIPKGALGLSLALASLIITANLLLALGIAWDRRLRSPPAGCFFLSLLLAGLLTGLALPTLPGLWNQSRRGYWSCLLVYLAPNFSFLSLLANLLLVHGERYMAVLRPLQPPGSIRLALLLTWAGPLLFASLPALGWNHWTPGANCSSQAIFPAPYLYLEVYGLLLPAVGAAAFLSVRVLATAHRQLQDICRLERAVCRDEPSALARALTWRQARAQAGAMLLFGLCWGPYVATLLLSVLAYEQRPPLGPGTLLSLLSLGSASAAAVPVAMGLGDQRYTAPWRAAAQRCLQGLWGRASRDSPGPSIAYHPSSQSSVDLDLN
Protocol: Human TGR5 cAMP Production Assay
Compounds of the present invention were evaluated for their ability to induce cAMP production using CHO-K1 cells overexpressing the human TGR5 receptor.
CHO-K1 cells stably expressing human TGR5 receptor (accession number NM_001077194.1) (hTGR5) (i.e., hTGR5-CHO cells) were purchased from DiscoveRx Corporation (Fremont, Calif.). hTGR5-CHO cells were grown in Ham's F-12 media supplemented with 10% Fetal Bovine Serum, 1% Penicillin-Streptomycin, 2 mM L-Alanine L-Glutamine (Glutamax), and 800 μg/mL Geneticin selection. The cAMP production assay was performed using DiscoveRx's cAMP XS+ kit (Catalog No. 90-0075XL) following the manufacturer's recommended protocol. Briefly, hTGR5-CHO cells were harvested using non-enzymatic cell dissociation buffer (Sigma-Aldrich, St. Louis, Mo.) and 1×10^6 cells were combined in Phosphate-Buffered Saline (PBS) to a final volume of 496 μL to which 4 μL of 125 mM IBMX (Sigma-Aldrich, St. Louis, Mo.) was added. 500 μL of cAMP antibody solution was added to the harvested cells and incubated at room temperature for 20 min.
Test compounds were serially diluted (half-log dilutions) in DMSO and then further diluted 1:50 in PBS, 10 mM HEPES buffer. 2 μL of serially diluted compound was added to a 384-well low volume plate (Greiner; cat #784075) and centrifuged briefly. 2 μl of the cell/cAMP antibody mixture was then added to each compound-containing well and allowed to incubate at room temperature for one hour. Following incubation, the XS+ kits' ED/Lysis/CL Substrate Working Solution was prepared following the manufacturer's recommended protocol and 4 μL was added to each well of the plate. The plate was then incubated for one hour at room temperature. Following incubation, 4 μL of Enzyme Acceptor reagent was added to the plate and allowed to incubate overnight at room temperature. Luminescent signal was then detected using the Viewlux instrument (Perkin-Elmer, Waltham, Mass.).
Human and Mouse TGR5 cAMP
(§1) In Table 52, EC50 values for both human and mouse cells were determined according to the TGR5 cAMP assays described above. […]

[2] = target: T2, mouse TGR5 receptor (Mus musculus, UniProt Q80SS6); test: Mouse TGR5 HTRF cAMP production assay (HEK293-EBNA cells, Cisbio cAMP HiRange kit); type: cell-based; conditions: HEK293-EBNA cells overexpressing mouse TGR5, HTRF cAMP assay
T2 construct: host or cells: HEK293-EBNA (293 c18, ATCC CRL10852)
T2 sequence (Q80SS6 1-329): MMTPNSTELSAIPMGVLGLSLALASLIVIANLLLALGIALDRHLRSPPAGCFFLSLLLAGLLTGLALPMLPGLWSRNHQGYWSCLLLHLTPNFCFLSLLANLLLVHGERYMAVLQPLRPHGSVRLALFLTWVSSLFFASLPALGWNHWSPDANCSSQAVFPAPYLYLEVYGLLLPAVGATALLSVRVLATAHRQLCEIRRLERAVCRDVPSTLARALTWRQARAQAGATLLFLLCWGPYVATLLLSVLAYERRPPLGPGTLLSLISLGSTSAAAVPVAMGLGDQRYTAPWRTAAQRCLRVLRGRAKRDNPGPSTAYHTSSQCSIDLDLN
Protocol: Mouse TGR5 cAMP Production Assay
Compounds of the present invention were evaluated for their ability to induce cAMP production in HEK-EBNA cells overexpressing the mouse TGR5 receptor. Human embryonic kidney cells (HEK293-EBNA) stably expressing mouse TGR5 receptor were established using the following procedure. Specifically, a commercially obtained gene encoding mouse TGR5 (accession number BC116914) from Thermo Scientific (Waltham, Mass.) was cloned into an episomal expression vector. The resulting expression plasmid was then transfected into 293 c18 (ATCC® CRL10852™) cells, which express the Epstein-Barr virus nuclear antigen EBNA1 and can support the replication of episomal vectors. Selection for the plasmid was maintained with Hygromycin B. Cells were cultured and maintained in DMEM (Sigma; cat #6429) supplemented with 10% Fetal Bovine Serum, 1% penicillin/streptomycin, 2 mM L-alanine L-glutamine (GlutaMax), and 250 μg/mL Hygromycin.
We developed two cAMP production assays.
(ii) HTRF cAMP Production Assay
In this second cAMP production assay, the cAMP production was measured in 384-well low volume plates (Greiner; cat #784075) using the Cisbio™ cAMP HiRange HTRF Assay Kit (CisBio) according to the manufacturer's protocol.
Briefly, compounds were initially diluted in 100% DMSO (12-point serial dilution by half logs) in a 96-well plate and then were further diluted 1:50 in PBS containing 10 mM HEPES. 5 μL were transferred to the 384-well assay plate in duplicate. HEK293-EBNA cells stably overexpressing mouse TGR5 were harvested using non-enzymatic cell dissociation buffer (Sigma), spun down, then resuspended in serum-free DMEM with 500 μM IBMX at a density of 500,000 cells/mL. 5 μL of cell suspension was transferred to each well of the 384-well assay plate already containing compound. The plate was covered and incubated at room temperature for 1 hour. The d2-cAMP and anti-cAMP Ab-cryptate stock solutions were prepared as per kit instructions. Then 5 μL of each conjugate (d2 and cryptate) were added to each well of the assay plate. The plate was covered and incubated at room temperature for one (1) hour. The plate was read on an Envision™ plate reader (PerkinElmer).
as §1

| Compound | EC50 [1] [nM] | EC50 [2] [nM] |
| --- | --- | --- |
| N#Cc1ccc(CCNC(=O)[C@@H]2CCCN2c2cc(-c3ccc(C(=O)O)s3)nc(C(F)(F)F)n2)cc1 [Compound 181, (S)-5-(6-(2-((4-cyanophenethyl)carbamoyl)pyrrolidin-1-yl)-2-(trifluoromethyl)pyrimidin-4-yl)thiophene-2-carboxylic acid] | 100 to 999 | < 100 |
| CN(C)CC(=O)N1CCN(c2cc(N3CCC[C@@H](C(=O)NCCc4ccc(C(F)(F)F)cc4)C3)nc(C(F)(F)F)n2)CC1 [Compound 338, (R)-1-(6-(4-(2-(dimethylamino)-acetyl)piperazin-1-yl)-2-(trifluoromethyl)-pyrimidin-4-yl)-N-(4-(trifluoromethyl)phenethyl)-piperidine-3-carboxamide] | 100 to 999 | 100 to 999 |
| O=C(O)CCNC(=O)NCCC1CCN(c2cc(N3CCC[C@H]3C(=O)NCCc3ccc(-c4ccccn4)cc3)nc(C(F)(F)F)n2)CC1 [Compound 378, (S)-3-(3-(2-(1-(6-(2-((4-(pyridin-2-yl)phenethyl)carbamoyl)pyrrolidin-1-yl)-2-(trifluoromethyl)pyrimidin-4-yl)piperidin-4-yl)ethyl)ureido)propanoic acid] | 1000 to 30000 | 1000 to 30000 |
| N#Cc1ccc(CCNC(=O)[C@@H]2CCCN2c2cc(N3CCC(CCCC(=O)NCCNc4nccc(C(=O)O)n4)CC3)nc(C(F)(F)F)n2)cc1 [Compound 102, (S)-2-((2-(4-(1-(6-(2-((4-cyanophenethyl)carbamoyl)pyrrolidin-1-yl)-2-(trifluoromethyl)pyrimidin-4-yl)piperidin-4-yl)butanamido)ethyl)amino) pyrimidine-4-carboxylic acid] | < 100 | < 100 |
| CN(CCS(=O)(=O)O)C(=O)CCC1CCN(c2cc(N3CC[C@H]3C(=O)NCCc3ccc(C(F)(F)F)cc3)nc(C(F)(F)F)n2)CC1 [Compound 252, (S)-2-(N-methyl-3-(1-(2-(trifluoromethyl)-6-(2-((4-(trifluoromethyl)phenethyl)carbamoyl)azetidin-1-yl)pyrimidin-4-yl)piperidin-4-yl)propanamido)ethanesulfonic acid] | < 100 | < 100 |
| N#Cc1ccc(CCNC(=O)[C@@H]2CCCN2c2cc(-c3ccc(CCN)cc3)nc(C(F)(F)F)n2)cc1 [Compound 184, (S)-1-(6-(4-(2-aminoethyl)phenyl)-2-(trifluoromethyl)pyrimidin-4-yl)-N-(4-cyanophenethyl)pyrrolidine-2-carboxamide] | 100 to 999 | 100 to 999 |
| O=C(O)CCCC1CCN(c2cc(N3CCC[C@H]3C(=O)NCCc3ccc(Cl)cc3Cl)ncn2)CC1 [Compound 35] | 1000 to 30000 | 100 to 999 |
| COC(=O)[C@@H](N)CCCCNC(=O)NCCC1CCN(c2cc(N3CC[C@H]3C(=O)NCCc3ccc(C#N)cc3)nc(C(F)(F)F)n2)CC1 [Compound 274, (S)-methyl 2-amino-6-(3-(2-(1-(6-((S)-2-((4-cyanophenethyl)carbamoyl)azetidin-1-yl)-2-(trifluoromethyl)pyrimidin-4-yl)piperidin-4-yl)ethyl)ureido)hexanoate] | < 100 | < 100 |

Further lines, results first:

| EC50 [1] [nM] | EC50 [2] [nM] | Compound |
| --- | --- | --- |
| < 100 | < 100 | N=C(N)NCCCC1CCN(c2cc(N3CCC[C@H]3C(=O)NCCc3ccc(C(F)(F)F)cc3)nc(C(F)(F)F)n2)CC1 [Compound 132, (S)-1-(6-(4-(3-guanidinopropyl)piperidin-1-yl)-2-(trifluoromethyl)pyrimidin-4-yl)-N-(4-(trifluoromethyl)phenethyl)-pyrrolidine-2-carboxamide] |
| 100 to 999 | < 100 | O=C(NCCc1ccc(C(F)(F)F)cc1)[C@@H]1CCN1c1cc(N2CCC(CCCC3CCN(C(=O)CS(=O)(=O)O)CC3)CC2)nc(C(F)(F)F)n1 [Compound 280, (S)-2-oxo-2-(4-(3-(1-(2-(trifluoromethyl)-6-(2-((4-(trifluoromethyl)phenethyl)carbamoyl)azetidin-1-yl)pyrimidin-4-yl)piperidin-4-yl)propyl)piperidin-1-yl)ethanesulfonic acid] |
| 100 to 999 | < 100 | O=C(NCCc1ccc(C(F)(F)F)cc1)[C@@H]1CCCN(c2cc(N3CCN(C(=O)CO)CC3)nc(C(F)(F)F)n2)C1 [Compound 348, (R)-1-(6-(4-(2-hydroxyacetyl)piperazin-1-yl)-2-(trifluoromethyl)pyrimidin-4-yl)-N-(4-(trifluoromethyl)phenethyl)piperidine-3-carboxamide] |
| < 100 | < 100 | N#Cc1ccc(CCNC(=O)[C@@H]2CCCN2c2cc(-c3ccc(CCC(=O)O)cc3)cc(C(F)(F)F)n2)cc1 [Compound 205, (S)-3-(4-(2-(2-((4-cyanophenethyl)carbamoyl)pyrrolidin-1-yl)-6-(trifluoromethyl)pyridin-4-yl)phenyl)propanoic acid] |
| 100 to 999 | < 100 | N#Cc1ccc(CCNC(=O)[C@@H]2CCCN2c2cc(-c3csc(CO)c3)nc(C(F)(F)F)n2)cc1 [Compound 182, (S)—N-(4-cyanophenethyl)-1-(6-(5-(hydroxymethyl)thiophen-3-yl)-2-(trifluoromethyl)pyrimidin-4-yl)pyrrolidine-2-carboxamide] |
| < 100 | < 100 | N#Cc1ccc(CCNC(=O)[C@@H]2CCCN2c2cc(N3CCC(CCCC(=O)NCCNc4ncnc5c4ncn5[C@@H]4O[C@H](CO)C(O)C4O)CC3)nc(C(F)(F)F)n2)cc1 (stereo partly drawn) [Compound 97, (2S)-N-(4-cyanophenethyl)-1-(6-(4-(4-((2-((9-((2R,5R)-3,4-dihydroxy-5-(hydroxymethyl)tetrahydrofuran-2-yl)-9H-purin-6-yl)amino)ethyl)amino)-4-oxobutyl)piperidin-1-yl)-2-(trifluoromethyl)-pyrimidin-4-yl)pyrrolidine-2-carboximide] |
